According to paper PMC6009896, “Dual targeting of cancer-related human matrix metalloproteinases and carbonic anhydrases by chiral N-(biarylsulfonyl)-phosphonic acids” (Journal of Enzyme Inhibition and Medicinal Chemistry, 2017):
Like-named read-outs stand apart in the source and are kept apart here.

What was measured:
Human CA II = Human CA II (Homo sapiens, UniProt P00918); test: CA catalyzed CO2 hydration stopped-flow assay, CA II; details: for decrease in activity on CA II compared to the standard AAZ: versus AAZ
Protocol: (§1) An applied photophysics stopped-flow instrument has been used for assaying the CA catalyzed CO2 hydration activity. […] The CO2 concentrations ranged from 1.7 to 17 mM for the determination of the kinetic parameters and inhibition constants. […] The uncatalyzed rates were determined in the same manner and subtracted from the total observed rates. Stock solutions of inhibitor (10–50 mM) were prepared in distilled-deionized water and dilutions up to 0.1 nM were done thereafter with the assay buffer.

Human CA I = Human CA I (Homo sapiens, UniProt P00915); test: CA catalyzed CO2 hydration stopped-flow assay, CA I
Chain of Human CA I (P00915 whole entry): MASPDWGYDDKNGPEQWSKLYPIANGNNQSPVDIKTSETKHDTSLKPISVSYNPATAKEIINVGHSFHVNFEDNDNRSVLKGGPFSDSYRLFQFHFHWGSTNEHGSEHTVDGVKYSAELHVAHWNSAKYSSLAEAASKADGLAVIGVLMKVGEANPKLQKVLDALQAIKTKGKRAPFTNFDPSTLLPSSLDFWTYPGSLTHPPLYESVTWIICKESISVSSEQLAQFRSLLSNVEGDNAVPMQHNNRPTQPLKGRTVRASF
Protocol: as §1

MMP-2 = system: MMP-2; design: method as in PMID 17088065, PMID 16451058, PMID 19204958; details: Table 2; existing data ref 16, 17, 24; cited from earlier work
Human CA XIV = Human CA XIV (Homo sapiens, UniProt Q9ULX7); test: CA catalyzed CO2 hydration stopped-flow assay, CA XIV
Chain of Human CA XIV (Q9ULX7 16-337): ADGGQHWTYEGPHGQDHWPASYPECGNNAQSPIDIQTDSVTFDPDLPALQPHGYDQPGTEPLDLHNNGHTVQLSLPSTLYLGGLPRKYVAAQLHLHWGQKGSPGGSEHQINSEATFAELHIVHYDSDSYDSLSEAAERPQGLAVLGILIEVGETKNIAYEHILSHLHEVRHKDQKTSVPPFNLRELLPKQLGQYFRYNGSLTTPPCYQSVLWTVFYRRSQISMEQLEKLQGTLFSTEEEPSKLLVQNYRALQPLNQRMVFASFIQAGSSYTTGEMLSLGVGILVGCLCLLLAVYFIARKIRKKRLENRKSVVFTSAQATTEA
Protocol: as §1

Human CA XII = Human CA XII (Homo sapiens, UniProt O43570); test: CA catalyzed CO2 hydration stopped-flow assay, CA XII
Chain of Human CA XII (O43570 25-354): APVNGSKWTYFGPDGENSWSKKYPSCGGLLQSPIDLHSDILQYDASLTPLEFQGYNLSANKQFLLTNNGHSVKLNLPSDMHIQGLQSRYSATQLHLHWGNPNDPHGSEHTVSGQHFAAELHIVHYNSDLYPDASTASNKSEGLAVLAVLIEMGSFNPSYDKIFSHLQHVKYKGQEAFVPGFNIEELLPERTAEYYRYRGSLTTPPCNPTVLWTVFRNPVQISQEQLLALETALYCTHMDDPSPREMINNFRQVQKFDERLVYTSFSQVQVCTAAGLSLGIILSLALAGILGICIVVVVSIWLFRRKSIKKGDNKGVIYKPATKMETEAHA
Protocol: as §1

Human CA IX = Human CA IX (Homo sapiens, UniProt Q16790); test: CA catalyzed CO2 hydration stopped-flow assay, CA IX
Protocol: as §1

MMP-8 = system: MMP-8; design: method as in PMID 17088065, PMID 16451058, PMID 19204958; details: Table 2; existing data ref 16, 17, 24; cited from earlier work
[1] = read-out: IC50 CA II, Table 1, human CA II, stopped-flow CO2 hydration, 15 min preincubation
[2] = read-out: IC50 CA I, Table 1, recombinant human CA I, stopped-flow CO2 hydration, 15 min preincubation
[3] = IC50 CA II, Table 1, human CA II, stopped-flow CO2 hydration, 15 min preincubation
[4] = read-out: IC50 CA I, Table 2, recombinant human CA I, stopped-flow CO2 hydration
[5] = read-out: IC50 CA XIV, Table 2, recombinant human CA XIV, stopped-flow CO2 hydration
[6] = read-out: IC50 CA XII, Table 2, recombinant human CA XII, stopped-flow CO2 hydration
[7] = read-out: IC50 CA IX, Table 2, recombinant human CA IX, stopped-flow CO2 hydration
[8] = read-out: IC50 CA II, Table 2, recombinant human CA II, stopped-flow CO2 hydration

Structure (SMILES): O=P(O)(O)CS(=O)(=O)c1ccc(-c2cccs2)cc1 [Compound 7]
- IC50 (Human CA II; [1]): > 10 µM
- IC50 (Human CA I; [2]): > 10 µM

Structure (SMILES): COc1ccc(-c2ccc(S(=O)(=O)C(Cc3ccccc3)P(=O)(O)O)cc2)cc1 (stereo not drawn) [Compound 10, 1–(4′-methoxybiphenyl-4-sulfonyl)-2-phenylethylphosphonic acid]
- IC50 (MMP-2): 8200 nM
- IC50 (Human CA II; [3]): > 10 µM
- IC50 (Human CA II; IC50 CA II, Table 2, recombinant human CA II, stopped-flow CO2 hydration): 21.1 µM
- IC50 (Human CA XIV): 7470 nM
- IC50 (Human CA XII): 8.48 µM
- IC50 (Human CA IX): 837 nM
- IC50 (Human CA I): > 10 µM
- IC50 (Human CA I; [4]): > 10 µM

Structure (SMILES): Cc1cccc(-c2ccc(S(=O)(=O)N[C@@H](C(C)C)P(=O)(O)O)cc2)c1 [(R)-13, (R)-1-[3′-methyl-biphenyl-4-sulfonylamino]-2-methylpropyl phosphonic acid]
- IC50 (Human CA II; [3]): > 10 µM
- IC50 (Human CA I): > 10 µM

Structure (SMILES): COc1ccc(-c2ccc(S(=O)(=O)CP(=O)(O)O)cc2)cc1 [Compound 4]
- IC50 (Human CA II; [1]): > 10 µM
- IC50 (Human CA I; [2]): > 10 µM

Structure (SMILES): O=P(O)(O)CS(=O)(=O)c1ccc(-c2cccc(Cl)c2)cc1 [Compound 6]
- IC50 (Human CA II; [1]): > 10 µM
- IC50 (Human CA I; [2]): > 10 µM

Structure (SMILES): Cc1ccc(-c2ccc(S(=O)(=O)N[C@@H](C(C)C)P(=O)(O)O)cc2)cc1 [(R)-12, (R)-N-(4′-methylbiphenylsulfonyl)-phosphovaline]
- IC50 (MMP-8): 0.4 nM
- IC50 (MMP-2): 2.3 nM
- decrease in activity on CA II compared to the standard AAZ (Human CA II): ~100 fold
- IC50 (Human CA II; [1]): 4.14 µM
- IC50 (Human CA II; read-out: IC50 CA II, Table 2, CA II from Sigma): 4.14 µM
- decrease in potency on CA XIV in comparison to CA IX (Human CA XIV; CA XIV versus CA IX): 4 fold
- IC50 (Human CA XIV; read-out: IC50 CA XIV, rounded value): 370 nM
- IC50 (Human CA XIV; [5]): 369 nM
- decrease in potency on CA XII in comparison to CA IX (Human CA XII; CA XII versus CA IX): 4 fold
- IC50 (Human CA XII; read-out: IC50 CA XII, rounded value): 0.47 µM
- IC50 (Human CA XII; [6]): 0.475 µM
- IC50 (Human CA IX; [7]): 93 nM
- IC50 (Human CA I; [2]): > 10 µM
- IC50 (Human CA I; [4]): > 10 µM

Structure (SMILES): COc1ccc(-c2ccc(S(=O)(=O)N[C@@H](C(C)C)P(=O)(O)O)cc2)cc1 [(R)-15, (R)-N-(4′-methoxybiphenylsulfonyl)-phosphovaline]
- IC50 (MMP-8): 1.4 nM
- IC50 (MMP-2): 1.5 nM
- decrease in activity on CA II compared to the standard AAZ (Human CA II): ~100 fold
- IC50 (Human CA II; [1]): 3.78 µM
- IC50 (Human CA II; [8]): 3.78 µM
- IC50 (Human CA XIV; [5]): 1520 nM
- IC50 (Human CA XII; [6]): 6.22 µM
- IC50 (Human CA IX; [7]): 84 nM
- IC50 (Human CA I; [2]): > 10 µM
- IC50 (Human CA I; [4]): > 10 µM

Structure (SMILES): O=P(O)(O)CS(=O)(=O)c1ccc(-c2ccc(C(F)(F)F)cc2)cc1 [Compound 5]
- IC50 (Human CA II; [1]): > 10 µM
- IC50 (Human CA I; [2]): > 10 µM

Structure (SMILES): O=P(O)(O)CS(=O)(=O)c1ccc(-c2ccccc2)cc1 [Compound 1]
- IC50 (Human CA II; [1]): > 10 µM
- IC50 (Human CA I; [2]): > 10 µM

Structure (SMILES): O=C(O)CS(=O)(=O)c1ccc(-c2ccccc2)cc1 [Compound 2]
- inhibitory activity on CA II (in words) (Human CA II): completely devoid of activity
- IC50 (Human CA II; [1]): > 10 µM
- inhibitory activity on CA I (in words) (Human CA I): completely devoid of activity
- IC50 (Human CA I; [2]): > 10 µM

Structure (SMILES): CC(C)CC(P(=O)(O)O)S(=O)(=O)c1ccc(-c2ccccc2)cc1 (racemic) [Compound 9]
- IC50 (Human CA II; [1]): > 10 µM
- IC50 (Human CA I; [2]): > 10 µM

Structure (SMILES): COc1ccc(Oc2ccc(S(=O)(=O)CP(=O)(O)O)cc2)cc1 [Compound 8]
- IC50 (Human CA II; [1]): > 10 µM
- IC50 (Human CA I; [2]): > 10 µM

Structure (SMILES): O=C(CS(=O)(=O)c1ccc(-c2ccccc2)cc1)NO [Compound 3]
- IC50 (MMP-8): 24 nM
- IC50 (MMP-2): 6 nM
- decrease in activity on CA II compared to the standard AAZ (Human CA II): ~100 fold
- IC50 (Human CA II; [1]): 3.66 µM
- IC50 (Human CA II; [8]): 3.66 µM
- IC50 (Human CA XIV; [5]): 8520 nM
- IC50 (Human CA XII; [6]): 8.86 µM
- IC50 (Human CA IX; read-out: IC50 CA IX, rounded value): 500 nM
- IC50 (Human CA IX; [7]): 527 nM
- IC50 (Human CA I; read-out: IC50 CA I, rounded value): 8.3 µM
- IC50 (Human CA I; [2]): 8.3 µM
- IC50 (Human CA I; [4]): 8.3 µM

Structure (SMILES): CC(C)(P(=O)(O)O)S(=O)(=O)c1ccc(-c2ccccc2)cc1 [Compound 11]
- IC50 (Human CA II; [1]): > 10 µM
- IC50 (Human CA I; [2]): > 10 µM
